Measured values reported in patent US8980899B2, “Methods of inhibiting Ire1” (The Regents of the University of California, priority 2009, dated 2015).

Target: Recombinant human Ire1-alpha (Homo sapiens, UniProt O75460)
Assay: In vitro inhibition assay, cleavage of 32P-stem-loop RNA by human Ire1
Assay type: biochemical
Settings: in vitro cleavage of 32P-stem-loop RNA by human Ire1, AD series; Control (no inhibitor) 8.8310e−3
Method: Recombinant human […]) was mixed with reaction buffer, inhibitor solution in DMSO, and ^32P-labeled RNA substrate having sequence 5'-[…] NO:1). Reactions were conducted at 30° C. and initiated by adding the RNA to reaction pre-mix containing all the components minus the RNA. […] (The reaction mixture may be modified by using different components or concentrations, different RNA substrate, or different Ire1 protein construct.) At time intervals (0 seconds, 10 seconds, 30 seconds, and 3 minutes), 1 μl aliquots of reaction mixture were taken and quenched in 10 M Urea, 0.1% SDS. Samples were analyzed by denaturing polyacrylamide gel electrophoresis and quantified using Typhoon phosphorImager. […] Reactions with Irestatin and exemplary compounds were conducted analogously. Irestatin was a gift obtained from the SPECS screen available as 5 mM solution in DMSO at UCSF small molecule discovery center.

Recombinant human Ire1-alpha, sequence (O75460 19-977): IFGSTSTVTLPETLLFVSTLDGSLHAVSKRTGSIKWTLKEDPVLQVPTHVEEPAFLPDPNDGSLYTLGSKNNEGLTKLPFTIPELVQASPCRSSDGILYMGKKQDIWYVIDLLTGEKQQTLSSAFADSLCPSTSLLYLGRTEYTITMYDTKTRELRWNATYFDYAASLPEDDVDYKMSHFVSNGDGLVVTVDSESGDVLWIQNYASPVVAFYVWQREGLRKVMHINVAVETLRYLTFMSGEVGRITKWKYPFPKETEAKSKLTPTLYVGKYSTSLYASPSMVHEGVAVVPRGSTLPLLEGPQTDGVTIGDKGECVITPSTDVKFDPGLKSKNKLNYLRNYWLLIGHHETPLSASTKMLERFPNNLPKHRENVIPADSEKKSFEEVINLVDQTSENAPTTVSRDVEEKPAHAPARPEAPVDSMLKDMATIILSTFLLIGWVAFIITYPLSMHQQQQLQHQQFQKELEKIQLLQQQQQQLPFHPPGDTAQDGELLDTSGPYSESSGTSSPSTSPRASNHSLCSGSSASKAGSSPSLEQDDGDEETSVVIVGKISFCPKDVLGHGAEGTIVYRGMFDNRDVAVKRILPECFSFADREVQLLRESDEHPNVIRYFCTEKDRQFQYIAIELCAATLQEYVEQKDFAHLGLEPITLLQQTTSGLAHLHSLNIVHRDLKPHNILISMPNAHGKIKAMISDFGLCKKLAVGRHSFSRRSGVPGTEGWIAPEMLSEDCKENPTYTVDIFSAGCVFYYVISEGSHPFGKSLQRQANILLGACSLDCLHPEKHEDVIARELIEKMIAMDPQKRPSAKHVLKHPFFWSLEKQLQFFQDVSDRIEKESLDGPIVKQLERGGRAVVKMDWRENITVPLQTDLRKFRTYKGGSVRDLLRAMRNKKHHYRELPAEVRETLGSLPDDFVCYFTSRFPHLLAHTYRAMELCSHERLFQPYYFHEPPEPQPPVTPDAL

| Structure (SMILES) | Ire1 activity |
| --- | --- |
| Nc1ncnc2c1c(-c1ccc(NC(=O)Nc3cccc(C(F)(F)F)c3)cc1)nn2[C@H]1CCOC1 [AD66, 1-(4-(4-amino-1-((S)-tetrahydrofuran-3-yl)-1H-pyrazolo[3,4-d]pyrimidin-3-yl)phenyl)-3-(3-(trifluoromethyl)phenyl)urea] | 0.0107 |
| Nc1ncnc2c1c(-c1ccc(NC(=O)c3cccc(C(F)(F)F)c3)cc1)nn2[C@H]1CCOC1 [AD67, N-(4-(4-amino-1-((S)-tetrahydrofuran-3-yl)-1H-pyrazolo[3,4-d]pyrimidin-3-yl)phenyl)-3-(trifluoromethyl)benzamide] | 0.0100 |
| Nc1ncnc2c1c(-c1ccc(NC(=O)c3cccc(C(F)(F)F)c3)cc1)nn2[C@@H]1CCOC1 [AD68, N-(4-(4-amino-1-((R)-tetrahydrofuran-3-yl)-1H-pyrazolo[3,4-d]pyrimidin-3-yl)phenyl)-3-(trifluoromethyl)benzamide] | 8.4550e−3 |
| Nc1ncnc2c1c(-c1ccc(NC(=O)Nc3cccc(C(F)(F)F)c3)cc1)nn2[C@@H]1CCOC1 [AD69, 1-(4-(4-amino-1-((R)-tetrahydrofuran-3-yl)-1H-pyrazolo[3,4-d]pyrimidin-3-yl)phenyl)-3-(3-(trifluoromethyl)phenyl)urea] | 0.0127 |
| Nc1ncnc2c1c(-c1ccc(NC(=O)c3cccc(C(F)(F)F)c3)cc1)nn2[C@H]1CCNC1 [AD70, N-(4-(4-amino-1-((S)-pyrrolidin-3-yl)-1H-pyrazolo[3,4-d]pyrimidin-3-yl)phenyl)-3-(trifluoromethyl)benzamide] | 9.0580e−3 |

Second part, the compound after the results:

| Ire1 activity | Structure (SMILES) |
| --- | --- |
| 1.2650e−3 | Nc1ncnc2c1c(-c1ccc(NC(=O)Nc3cccc(C(F)(F)F)c3)cc1)nn2[C@H]1CCN(C(=O)Nc2cccc(C(F)(F)F)c2)C1 [AD71c] |
| 6.4950e−3 | Nc1ncnc2c1c(-c1ccc(NC(=O)c3cccc(C(F)(F)F)c3)cc1)nn2[C@@H]1CCNC1 [AD72, N-(4-(4-amino-1-((R)-pyrrolidin-3-yl)-1H-pyrazolo[3,4-d]pyrimidin-3-yl)phenyl)-3-(trifluoromethyl)benzamide] |
